Measurements from patent publication US6913767B1, “Compositions for microencapsulation of antigens for use as vaccines” (priority 1993, dated 2005).

Assay: Stability (intact fraction) of QS21
Type: physicochemical
Settings: same time (74 days), same conditions
Description: QS21 controls were also run. In RP-HPLC analysis, the rgp120 peak elutes before the QS21 peak and, therefore, this method provides simultaneous quantitation of QS21 and rgp120 released from the microspheres.
Microspheres containing QS21, or QS21 with MN rgp120, were incubated in physiological buffer at 37° C. to assess the time for release of the second burst.

With QS21 the “intact QS21 in solution” value was “less than 25%”.
